Legend:
[1] = mn = molality of the nth substance listed, in mol/kg; conditions: 298.15 K, 100 kPa, Liquid, Vibrating tube method
[2] = molar heat capacity at constant pressure; mn = molality of the nth substance listed, in mol/kg; conditions: 298.15 K, 100 kPa, Liquid

O=C[O-].[Na+] [sodium methanoate] + O
Conditions | mass density, [1] [kg/m3] | molar heat capacity at constant pressure, [2] [J/K/mol]
m1 = 0.00974 | 997.482 | 74.69
m1 = 0.01004 | 997.512 | 74.71
m1 = 0.02003 | 997.907 | 74.79
m1 = 0.02065 | 997.932 | 74.7
m1 = 0.04058 | 998.75 | 74.71
m1 = 0.04064 | 998.753 | 74.79
m1 = 0.06027 | 999.589 | 74.76
m1 = 0.06153 | 999.685 | 74.66
m1 = 0.08026 | 1000.45 | 74.73
m1 = 0.08098 | 1000.47 | 74.63
m1 = 0.1002 | 1001.25 | 74.72
m1 = 0.1006 | 1001.27 | 74.62
m1 = 0.1998 | 1005.36 | 74.62
m1 = 0.25 | 1007.39 | 74.49
m1 = 0.5003 | 1017.41 | 74.3
m1 = 0.5005 | 1017.34 | 74.41
m1 = 0.75 | 1027.24 | 74.33
m1 = 0.7507 | 1027.17 | 74.18
m1 = 1 | 1036.61 | 73.86
m1 = 1.008 | 1037.01 | 74.26
m1 = 2 | 1072.42 | 74.32
m1 = 2.576 | 1092.07 | 75.46
m1 = 3.968 | 1134.81 | 75.93
m1 = 4 | 1135.38 | 75.98
m1 = 5.998 | 1188.91 | 78.43
m1 = 6.036 | 1190.2 | 77.81
m1 = 8.011 | 1235.13 | 81.13
m1 = 10.01 | 1275.62 | 84.02
